From publication PMC11785709, “Angelica gigas Nakai (Korean Dang-gui) Root Alcoholic Extracts in Health Promotion and Disease Therapy – active Phytochemicals and In Vivo Molecular Targets” (Pharmaceutical Research, 2025)
“And” between values parts separate entries of the source, which are not always exact repeats. Equal values may be shown once. Read-outs that look alike come from different tables or passages of the source.

How the values were obtained:
PDK2/PDHK2 = target: T1, PDK2/PDHK2 (Homo sapiens, UniProt Q15119); experiment: Reaction Biology kinase activity inhibition; assay type: biochemical; conditions: for IC50: validation titration, 6.25 to 100 µM, Hotspot confirmation
T1 construct: purchased Reaction Biology (Malvern, PA)
Text: (§1) The second screening was the Reaction Biology® (Malvern, PA) kinase activity inhibition tests, which screened for more than 600 protein kinases and lipid kinases, using miniaturized radioisotope-based assay platform with γ-^33P-ATP, followed by confirmation with IC50 kinase profiling service with 5 concentrations of test compound (i.e., DOH and DA) with curve fitting.

CAMKK1 = target: T2, CAMKK1 (Homo sapiens, UniProt Q8N5S9); experiment: Reaction Biology kinase activity inhibition; assay type: biochemical; conditions: for IC50: validation titration, 6.25 to 100 µM, Hotspot confirmation
T2 construct: purchased Reaction Biology (Malvern, PA)
T2 sequence (Q8N5S9 whole entry): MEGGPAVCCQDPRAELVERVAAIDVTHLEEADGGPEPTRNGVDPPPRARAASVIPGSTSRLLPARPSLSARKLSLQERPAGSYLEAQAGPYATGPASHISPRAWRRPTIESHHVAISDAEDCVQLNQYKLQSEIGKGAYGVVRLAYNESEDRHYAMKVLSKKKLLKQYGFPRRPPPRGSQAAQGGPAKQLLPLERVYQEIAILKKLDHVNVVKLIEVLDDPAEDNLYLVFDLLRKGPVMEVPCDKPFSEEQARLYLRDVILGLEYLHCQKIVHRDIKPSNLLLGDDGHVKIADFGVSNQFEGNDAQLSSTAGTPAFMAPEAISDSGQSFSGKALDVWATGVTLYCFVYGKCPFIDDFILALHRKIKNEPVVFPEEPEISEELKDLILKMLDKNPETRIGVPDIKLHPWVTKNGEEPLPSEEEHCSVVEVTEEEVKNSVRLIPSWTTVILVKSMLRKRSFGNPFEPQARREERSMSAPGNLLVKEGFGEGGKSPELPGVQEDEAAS
Text: as §1

DDR1 = target: T3, DDR1 (Homo sapiens, UniProt Q08345); experiment: Reaction Biology kinase activity inhibition; assay type: biochemical; conditions: for IC50: validation titration, 6.25 to 100 µM, Hotspot confirmation
T3 construct: purchased Reaction Biology (Malvern, PA)
T3 sequence (Q08345 19-913): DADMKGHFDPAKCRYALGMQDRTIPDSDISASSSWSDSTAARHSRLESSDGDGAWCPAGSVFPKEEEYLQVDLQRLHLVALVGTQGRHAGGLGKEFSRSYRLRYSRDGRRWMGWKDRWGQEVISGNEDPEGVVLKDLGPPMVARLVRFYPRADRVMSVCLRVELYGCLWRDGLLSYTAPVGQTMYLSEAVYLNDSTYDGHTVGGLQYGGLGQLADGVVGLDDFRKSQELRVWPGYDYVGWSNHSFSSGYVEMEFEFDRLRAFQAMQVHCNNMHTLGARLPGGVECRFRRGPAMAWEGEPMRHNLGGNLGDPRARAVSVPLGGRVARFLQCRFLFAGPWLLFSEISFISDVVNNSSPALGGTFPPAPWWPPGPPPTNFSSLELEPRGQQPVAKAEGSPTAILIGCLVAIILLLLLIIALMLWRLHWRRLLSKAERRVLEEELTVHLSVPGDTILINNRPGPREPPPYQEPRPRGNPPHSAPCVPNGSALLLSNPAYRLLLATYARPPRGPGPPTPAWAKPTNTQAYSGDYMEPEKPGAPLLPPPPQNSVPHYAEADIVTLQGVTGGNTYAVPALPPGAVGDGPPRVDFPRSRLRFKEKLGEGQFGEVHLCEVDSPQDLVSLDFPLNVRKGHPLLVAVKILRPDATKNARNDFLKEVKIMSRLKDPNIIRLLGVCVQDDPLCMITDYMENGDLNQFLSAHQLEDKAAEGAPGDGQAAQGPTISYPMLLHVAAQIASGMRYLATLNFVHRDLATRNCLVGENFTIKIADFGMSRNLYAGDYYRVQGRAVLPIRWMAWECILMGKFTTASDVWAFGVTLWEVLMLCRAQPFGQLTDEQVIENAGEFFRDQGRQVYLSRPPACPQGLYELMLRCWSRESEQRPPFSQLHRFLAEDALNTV
Text: as §1

BRSK2 = target: T4, BRSK2 (Homo sapiens, UniProt Q8IWQ3); experiment: Reaction Biology kinase activity inhibition; assay type: biochemical; conditions: for IC50: validation titration, 6.25 to 100 µM, Hotspot confirmation
T4 construct: purchased Reaction Biology (Malvern, PA)
T4 sequence (Q8IWQ3 1-736): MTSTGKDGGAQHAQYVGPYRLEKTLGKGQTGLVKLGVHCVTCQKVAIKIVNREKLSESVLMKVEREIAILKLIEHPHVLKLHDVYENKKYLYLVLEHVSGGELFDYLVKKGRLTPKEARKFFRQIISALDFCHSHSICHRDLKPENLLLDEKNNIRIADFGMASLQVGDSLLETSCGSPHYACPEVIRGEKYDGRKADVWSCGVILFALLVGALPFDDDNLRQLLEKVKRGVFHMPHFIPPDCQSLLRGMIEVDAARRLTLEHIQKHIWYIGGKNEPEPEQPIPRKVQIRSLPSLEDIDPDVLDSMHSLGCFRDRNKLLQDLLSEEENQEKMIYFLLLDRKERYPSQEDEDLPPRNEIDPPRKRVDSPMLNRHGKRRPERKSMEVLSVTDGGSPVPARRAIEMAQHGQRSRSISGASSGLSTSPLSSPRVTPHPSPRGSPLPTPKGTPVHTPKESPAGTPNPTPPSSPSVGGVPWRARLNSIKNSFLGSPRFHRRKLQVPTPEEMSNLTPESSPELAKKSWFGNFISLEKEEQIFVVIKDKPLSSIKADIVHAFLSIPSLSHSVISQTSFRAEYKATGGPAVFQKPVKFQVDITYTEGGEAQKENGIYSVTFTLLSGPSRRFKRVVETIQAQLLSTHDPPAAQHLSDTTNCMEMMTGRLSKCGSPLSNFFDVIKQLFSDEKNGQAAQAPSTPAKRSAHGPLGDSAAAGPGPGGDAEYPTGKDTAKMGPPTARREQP
Text: as §1

AR; ERα = conditions: cited from earlier work; for mode of action on AR and ERα: responsive cancer cell culture models
ROCK1 [1] = target: T5, ROCK1 (Homo sapiens, UniProt Q13464); experiment: Reaction Biology kinase activity inhibition; assay type: biochemical; design: purchased Reaction Biology (Malvern, PA)
T5 sequence (Q13464 whole entry): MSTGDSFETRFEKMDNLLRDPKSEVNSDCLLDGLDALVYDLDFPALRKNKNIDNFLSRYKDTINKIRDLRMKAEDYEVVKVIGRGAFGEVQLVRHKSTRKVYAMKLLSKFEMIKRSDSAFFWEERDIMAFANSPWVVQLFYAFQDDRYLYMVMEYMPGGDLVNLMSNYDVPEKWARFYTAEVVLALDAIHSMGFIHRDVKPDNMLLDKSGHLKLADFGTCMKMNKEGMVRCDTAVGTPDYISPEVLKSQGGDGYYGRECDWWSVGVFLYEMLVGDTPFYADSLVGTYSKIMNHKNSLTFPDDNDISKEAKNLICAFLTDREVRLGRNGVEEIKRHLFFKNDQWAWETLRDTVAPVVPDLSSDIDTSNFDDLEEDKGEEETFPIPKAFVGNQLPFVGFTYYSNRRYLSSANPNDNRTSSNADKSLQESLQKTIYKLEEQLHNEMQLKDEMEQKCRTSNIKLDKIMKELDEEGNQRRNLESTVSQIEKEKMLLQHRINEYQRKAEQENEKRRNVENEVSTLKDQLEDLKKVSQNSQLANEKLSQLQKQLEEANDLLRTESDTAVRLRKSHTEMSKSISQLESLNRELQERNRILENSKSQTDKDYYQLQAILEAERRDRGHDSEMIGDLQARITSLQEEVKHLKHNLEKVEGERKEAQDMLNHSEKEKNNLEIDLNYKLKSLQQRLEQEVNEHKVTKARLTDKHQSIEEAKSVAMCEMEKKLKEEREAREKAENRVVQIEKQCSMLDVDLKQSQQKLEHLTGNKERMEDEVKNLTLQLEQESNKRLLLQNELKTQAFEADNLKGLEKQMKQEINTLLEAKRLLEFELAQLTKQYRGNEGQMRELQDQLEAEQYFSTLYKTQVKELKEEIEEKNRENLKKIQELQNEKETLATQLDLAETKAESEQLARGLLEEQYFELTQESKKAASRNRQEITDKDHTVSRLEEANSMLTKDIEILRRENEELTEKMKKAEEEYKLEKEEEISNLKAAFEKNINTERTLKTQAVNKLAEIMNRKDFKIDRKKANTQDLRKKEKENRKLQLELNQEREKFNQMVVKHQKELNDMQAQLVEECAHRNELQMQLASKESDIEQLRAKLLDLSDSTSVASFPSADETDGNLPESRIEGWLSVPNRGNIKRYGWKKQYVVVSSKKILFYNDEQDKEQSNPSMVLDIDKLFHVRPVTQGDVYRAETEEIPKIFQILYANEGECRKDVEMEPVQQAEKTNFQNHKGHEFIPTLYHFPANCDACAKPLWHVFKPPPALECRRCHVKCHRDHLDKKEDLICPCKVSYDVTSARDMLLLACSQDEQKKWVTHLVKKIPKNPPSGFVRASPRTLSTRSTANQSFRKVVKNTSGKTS
Text: as §1

ROCK2 [2] = target: T6, ROCK2 (Homo sapiens, UniProt O75116); experiment: Reaction Biology kinase activity inhibition; assay type: biochemical; design: purchased Reaction Biology (Malvern, PA)
T6 sequence (O75116 whole entry): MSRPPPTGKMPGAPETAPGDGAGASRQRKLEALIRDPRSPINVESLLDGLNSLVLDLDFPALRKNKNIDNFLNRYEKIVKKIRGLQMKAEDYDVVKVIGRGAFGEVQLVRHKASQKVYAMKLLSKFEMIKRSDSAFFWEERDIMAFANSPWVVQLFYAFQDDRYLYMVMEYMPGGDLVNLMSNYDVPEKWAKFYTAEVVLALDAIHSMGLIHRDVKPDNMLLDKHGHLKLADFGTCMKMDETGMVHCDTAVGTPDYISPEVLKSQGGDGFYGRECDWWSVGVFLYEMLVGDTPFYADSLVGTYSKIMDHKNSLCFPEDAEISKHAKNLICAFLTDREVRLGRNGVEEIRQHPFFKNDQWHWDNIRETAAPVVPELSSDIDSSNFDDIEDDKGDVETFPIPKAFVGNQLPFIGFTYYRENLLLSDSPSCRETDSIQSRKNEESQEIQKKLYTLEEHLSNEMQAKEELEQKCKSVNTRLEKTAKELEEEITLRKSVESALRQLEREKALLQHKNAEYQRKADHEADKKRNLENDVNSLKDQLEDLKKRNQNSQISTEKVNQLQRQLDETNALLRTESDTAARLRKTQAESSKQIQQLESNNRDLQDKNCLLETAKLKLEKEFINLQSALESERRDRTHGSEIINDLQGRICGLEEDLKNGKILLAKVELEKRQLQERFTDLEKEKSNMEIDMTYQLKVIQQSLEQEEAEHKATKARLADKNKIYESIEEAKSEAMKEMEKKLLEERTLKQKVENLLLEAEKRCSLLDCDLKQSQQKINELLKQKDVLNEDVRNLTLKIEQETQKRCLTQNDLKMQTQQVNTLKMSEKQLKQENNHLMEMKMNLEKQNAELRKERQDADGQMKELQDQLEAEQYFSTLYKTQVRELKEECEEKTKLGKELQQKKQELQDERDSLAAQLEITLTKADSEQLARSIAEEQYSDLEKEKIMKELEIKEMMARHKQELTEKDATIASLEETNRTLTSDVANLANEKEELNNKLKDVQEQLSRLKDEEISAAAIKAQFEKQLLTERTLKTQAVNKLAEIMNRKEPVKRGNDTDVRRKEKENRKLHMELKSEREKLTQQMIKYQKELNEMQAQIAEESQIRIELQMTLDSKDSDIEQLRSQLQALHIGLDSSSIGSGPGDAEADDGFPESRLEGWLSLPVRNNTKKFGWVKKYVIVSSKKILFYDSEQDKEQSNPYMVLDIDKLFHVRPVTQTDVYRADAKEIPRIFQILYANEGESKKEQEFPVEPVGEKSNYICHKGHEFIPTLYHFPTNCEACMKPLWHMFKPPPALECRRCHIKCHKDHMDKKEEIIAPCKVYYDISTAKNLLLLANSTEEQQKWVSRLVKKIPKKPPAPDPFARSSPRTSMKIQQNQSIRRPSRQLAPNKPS
Text: as §1

ROCK1 [3] = target: T5, ROCK1; experiment: KINOMEscan competition binding; design: purchased Eurofins DiscoverX (KINOMEscan)
Procedure: (§2) Two distinct platforms were used for initial screening with 50 µM DOH vs. DMSO vehicle. The first was the Eurofins DiscoverX KINOMEscan® (Freemont, CA USA) profiling platform, which employed a proprietary active site-directed competition binding assay to quantitatively measure interactions between a test compound (i.e., DOH) and 468 human protein kinases and disease relevant mutant variants either directly (sterically) or indirectly (allosterically) to prevent a kinase binding to its immobilized substrate (ligand). The top 8 hits were subjected to secondary screening verification by DOH concentration-titration for dissociation constant (Kd). For ROCK1 and ROCK2, DA was chosen for Kd titration as well, because it is ~ 10 × higher than D in peripheral circulation due to its resistance to hydrolysis by carboxyesterase-2 (Fig. 1C).

ROCK2 [4] = target: T6, ROCK2; experiment: KINOMEscan competition binding; design: purchased Eurofins DiscoverX (KINOMEscan)
Procedure: as §2

MAO-B = tested on: MAO-B; design: method as in PMID 28109809; conditions: screened at 10 μM; cited from earlier work
DRAK2 (STK17B) = target: T7, DRAK2 (STK17B) (Homo sapiens, UniProt O94768); experiment: KINOMEscan competition binding; conditions: for Kd: validation Kd titration, 0.003 to 50 µM, two values per cell
T7 construct: purchased Eurofins DiscoverX (KINOMEscan)
T7 sequence (O94768 1-372): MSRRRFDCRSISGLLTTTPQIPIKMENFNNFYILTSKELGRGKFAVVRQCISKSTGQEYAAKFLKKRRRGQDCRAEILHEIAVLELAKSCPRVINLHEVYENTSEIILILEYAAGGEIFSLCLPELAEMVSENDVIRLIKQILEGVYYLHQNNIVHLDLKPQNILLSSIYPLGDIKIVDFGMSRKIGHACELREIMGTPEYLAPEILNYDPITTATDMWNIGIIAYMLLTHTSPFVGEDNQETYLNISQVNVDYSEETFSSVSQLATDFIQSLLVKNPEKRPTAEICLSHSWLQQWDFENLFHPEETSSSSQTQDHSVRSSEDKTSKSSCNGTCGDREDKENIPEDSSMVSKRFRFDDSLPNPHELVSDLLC
Procedure: as §2

human MAO-A = tested on: human MAO-A; design: method as in PMID 28109809; conditions: cited from earlier work; for IC50: read-out: MAO-A inhibition IC50
[5] = cited from earlier work; for Cmax: 4.6 g AGN root powder per subject (0.055 mg D, 0.184 mg DA, 1.095 mg nodakenin); for t1/2 / tmax: 4.6 g AGN root powder per subject
[6] = Reaction Biology, Inc, Table 1, read-out: ROCK1 IC50
[7] = validation titration, 6.25 to 100 µM, Hotspot confirmation, read-out: IC50
[8] = Reaction Biology, Inc, Table 1, read-out: ROCK2 IC50
[9] = Eurofins DiscoveRx, Table 1, read-out: ROCK1 Kd
[10] = validation Kd titration, 0.003 to 50 µM, two values per cell, read-out: Kd
[11] = Eurofins DiscoveRx, Table 1, read-out: ROCK2 Kd
[12] = initial screening, DOH (50 µM), Data 1 and Data 2
[13] = initial screening, DOH (50 µM), Data 1 and Data 2, read-out: % Enzyme Activity (relative to DMSO controls)
[14] = initial screening, DOH 50 µM, read-out: Substrate bound % Control

SMILES: C/C=C(/C)C(=O)O[C@H]1Cc2cc3ccc(=O)oc3cc2OC1(C)C [DA, decursinol angelate]
- IC50 (PDK2/PDHK2): > 100 µM
- IC50 (CAMKK1): > 100 µM
- IC50 (DDR1): > 100 µM
- IC50 (BRSK2): > 100 µM
- IC50 (AR; ERα; antagonist/degrader): ~5 µM
- mode of action on AR and ERα (AR; ERα): antagonists/degraders
- IC50 (ROCK1 [1]; [6]): 18 µM
- IC50 (ROCK1 [1]; [7]): 16 µM and 20 µM
- IC50 (ROCK2 [2]; [8]): 23 µM
- IC50 (ROCK2 [2]; [7]): 22 µM
- Kd (ROCK1 [3]; [9]): 2.1 µM
- Kd (ROCK1 [3]; [10]): 1.9 µM and 2.3 µM
- Kd (ROCK2 [4]; [11]): 5.6 µM
- Kd (ROCK2 [4]; [10]): 5.4 µM and 5.8 µM
- inhibitory activity on MAO-B (MAO-B): lacked any inhibitory activity
- Kd (DRAK2 (STK17B)): > 50 µM
- IC50 (human MAO-A): 12.8 µM
- Cmax [5]: 7.72 ng/mL
- t1/2 [5]: 4.04 h
- tmax [5]: 0.31 h

SMILES: CC1(C)Oc2cc3oc(=O)ccc3cc2C[C@@H]1O [DOH, decursinol]
- inhibition at 50 µM (PDK2/PDHK2; initial screening, DOH 50 µM): 39.7%
- % Enzyme Activity (relative to DMSO controls) (PDK2/PDHK2; [12]): 59.8%
- remaining activity at 50 µM (PDK2/PDHK2; [13]): 60.8%
- IC50 (PDK2/PDHK2): > 100 µM
- inhibition at 50 µM (CAMKK1; initial screening, DOH 50 µM): 40.3%
- % Enzyme Activity (relative to DMSO controls) (CAMKK1; [12]): 59.3%
- remaining activity at 50 µM (CAMKK1; [13]): 60.1%
- IC50 (CAMKK1): > 100 µM
- inhibition at 50 µM (DDR1; initial screening, DOH 50 µM): 49%
- % Enzyme Activity (relative to DMSO controls) (DDR1; [12]): 49.7%
- remaining activity at 50 µM (DDR1; [13]): 52.3%
- IC50 (DDR1): > 100 µM
- inhibition at 50 µM (BRSK2; initial screening, DOH 50 µM): 46.8%
- % Enzyme Activity (relative to DMSO controls) (BRSK2; [12]): 52.6%
- remaining activity at 50 µM (BRSK2; [13]): 53.8%
- IC50 (BRSK2): > 100 µM
- EC50 (AR; ERα; read-out: AR, ERα agonist EC50): ~10 µM
- mode of action on AR and ERα (AR; ERα): weak partial agonist activity
- IC50 (ROCK1 [1]; [6]): 81 µM
- DOH % Inhibition (ROCK1 [1]; initial screening, DOH 50 µM): 26.6%
- inhibition at 50 µM (ROCK1 [1]; initial screening, DOH 50 µM): 27%
- % Enzyme Activity (relative to DMSO controls) (ROCK1 [1]; [12]): 72.1%
- remaining activity at 50 µM (ROCK1 [1]; [13]): 74.7%
- IC50 (ROCK2 [2]; [8]): 85 µM
- DOH % Inhibition (ROCK2 [2]; initial screening, DOH 50 µM): 43.2%
- inhibition at 50 µM (ROCK2 [2]; initial screening, DOH 50 µM): 43%
- % Enzyme Activity (relative to DMSO controls) (ROCK2 [2]; [12]): 56.1%
- remaining activity at 50 µM (ROCK2 [2]; [13]): 57.5%
- Kd (ROCK1 [3]; [9]): 7.5 µM
- remaining binding at 50 µM (ROCK1 [3]; [14]): 12%
- Kd (ROCK1 [3]; [10]): 7.3 µM and 7.6 µM
- Kd (ROCK2 [4]; [11]): 14.5 µM
- remaining binding at 50 µM (ROCK2 [4]; [14]): 21%
- Kd (ROCK2 [4]; [10]): 14 µM and 15 µM
- inhibitory activity on MAO-B (MAO-B): lacked any inhibitory activity
- remaining binding at 50 µM (DRAK2 (STK17B); [14]): 24%
- Kd (DRAK2 (STK17B)): 21 µM and 22 µM
- MAO-A initial screen (human MAO-A; at 10 μM): failed the initial screen
- IC50 (human MAO-A): > 10 µM
- Cmax [5]: 0.92 ng/mL
- t1/2 [5]: 2.62 h
- tmax [5]: 0.64 h
